The results in this text go back to patent US20170165253A1, “TREATMENT OF SEXUAL DYSFUNCTION AND FOR IMPROVED SEXUAL QUALITY OF LIFE” (ReJoy, priority 2015, published 2017).

Counter-ions that a name gives are not always drawn.

The subject of experiment [1] is NAC. The experiment can be described thus: Acetylcholine receptor agonists: nipple erection and sensitivity (Example 13). The class given is in vivo, human. As to conditions: single topical dose to one NAC, one subject per agent; for Onset Time: 0.4-12.5 mg/cm^2. The procedure:
A study was conducted to assess the effectiveness of different acetylcholine receptor agonists on eliciting nipple erection and increasing nipple sensitivity in normal women aged 18-65. Ten subjects were recruited. Each subject was randomly assigned a single agonist. Each subject self-administered a single dose of the agonist to one NAC that was self-reported as the least sensitive (or if no differential sensitivity, then the left NAC). The agonists were applied in topical solutions to the NAC. The subject was supervised by a medical professional. Blood pressure and heart rate were monitored at baseline, 5 minutes, 10 minutes, and 30 minutes. […] Subjects were asked to report if they experienced nipple erection and sensitivity in less than 10 minutes and if the effect lasted more or less than 10 minutes. The subjects all responded to the agonists. The effect was short-lived; however, sensitivity is some of the subjects was reported up 60 minutes later.

Experiment [2] has as its system areola. The experiment can be described thus: Dose study of nipple erection and sensitivity, topical oxymetazoline (Example 7). Format: in vivo, human. The note with it: 0.5% topical solution. The procedure:
Oxymetazoline HCl 0.1%, 0.2%, 0.5%. A study was conducted to assess the dosage of topical oxymetazoline solution required to elicit nipple erection and sensitivity. Five premenopausal subjects participated in the study. Subjects were not hypertensive, pregnant or breastfeeding. Three formulations were used: Formula A: 0.1% topical oxymetazoline hydrochloride solution; Formula B: 0.2% topical oxymetazoline hydrochloride solution; Formula C: 0.5% topical oxymetazoline hydrochloride solution.
The study was conducted over 3 days. On day 1, subjects were instructed to apply Formula A to both areolas. On day 2, subjects were instructed to apply Formula B to both areolas. On day 3, subjects were instructed to apply Formula C to both areolas. 0.1 mL of each formula was applied using a metered dosage dispenser to each areola. […] With the 0.5% topical oxymetazoline solution, response in nipple erection and sensitivity was obtained approximately within 1 hour and lasted over 8 hours.

For the compound `CN1[C@@H](CC(=O)c2ccccc2)CCC[C@H]1C[C@H](O)c1ccccc1` [Alpha-Lobeline], in experiment [1], the “Nipple Erection (Yes/No)” value was “Yes”, the “Nipple Sensitivity (Yes/No)” value is on record as “Yes”, the “Nipple Sensitivity Effect Duration” value is less than 10 min and the “Onset Time” value is reported as less than 10 min.
For `CC1OC2(CS1)CN1CCC2CC1` (stereo not shown) [Cevimeline], in experiment [1], the “Nipple Erection (Yes/No)” value is given as “Yes”, the “Nipple Sensitivity (Yes/No)” value is reported as “Yes”, the “Nipple Sensitivity Effect Duration” value is recorded as less than 10 min and the “Onset Time” value is recorded as less than 10 min.
As for `CCN(CC)CCNC(=O)c1cc(Cl)c(N)cc1OC` [Metaclopramide], in experiment [1], the “Nipple Erection (Yes/No)” value is “Yes”, the “Nipple Sensitivity (Yes/No)” value was “Yes”, the “Nipple Sensitivity Effect Duration” value is listed as less than 10 min and the “Onset Time” value is on record as less than 10 min.
For `CC(C[N+](C)(C)C)OC(N)=O` (stereo not shown) [Bethanechol], in experiment [1], the “Nipple Erection (Yes/No)” value is listed as “Yes”, the “Nipple Sensitivity (Yes/No)” value is “Yes”, the “Nipple Sensitivity Effect Duration” value was less than 10 min and the “Onset Time” value is listed as less than 10 min.
For the compound `C[N+](C)(C)CCOC(N)=O` [Carbachol], in experiment [1], the “Nipple Erection (Yes/No)” value is listed as “Yes”, the “Nipple Sensitivity (Yes/No)” value is on record as “Yes”, the “Nipple Sensitivity Effect Duration” value is on record as less than 10 min and the “Onset Time” value is less than 10 min.
As to `CC(=O)OC(C)C[N+](C)(C)C.[Cl-]` (stereo not shown) [Mecholyl], in experiment [1], the “Nipple Erection (Yes/No)” value is recorded as “Yes”, the “Nipple Sensitivity (Yes/No)” value is “Yes”, the “Nipple Sensitivity Effect Duration” value is given as less than 10 min and the “Onset Time” value is on record as less than 10 min.
As for `Cc1cc(C(C)(C)C)c(O)c(C)c1CC1=NCCN1` [oxymetazoline, oxymetazoline hydrochloride], in experiment [2], the duration of response entry is reported as “over 8 hours”; the “time to response in nipple erection and sensitivity” value is no more than 1 h.
For `CC(=O)OC(C)C[N+](C)(C)C` (stereo not shown) [Methacholine], in experiment [1], the “Nipple Erection (Yes/No)” value was “Yes”, the “Nipple Sensitivity (Yes/No)” value is listed as “Yes”, the “Nipple Sensitivity Effect Duration” value is less than 10 min and the “Onset Time” value was less than 10 min.
As to `CC(=O)OCC[N+](C)(C)C` [Acetylcholine], in experiment [1], the “Nipple Sensitivity Effect Duration” value is given as less than 5 min and the “Onset Time” value is recorded as less than 10 min.
For `CC[C@@H]1C(=O)OC[C@@H]1Cc1cncn1C` [Pilocarpine], in experiment [1], the “Nipple Erection (Yes/No)” value was “Yes”, the “Nipple Sensitivity (Yes/No)” value is recorded as “Yes”, the “Nipple Sensitivity Effect Duration” value is less than 5 min and the “Onset Time” value was less than 10 min.
As to `CN1CCCC1c1cccnc1` (stereo not shown) [Nicotine], in experiment [1], the “Nipple Erection (Yes/No)” value was “Yes”, the “Nipple Sensitivity (Yes/No)” value is “Yes”, the “Nipple Sensitivity Effect Duration” value is less than 10 min and the “Onset Time” value is on record as less than 10 min.
